According to patent US20230398130A1, “METHODS AND COMPOSITIONS FOR DIFFERENTIATING STEM CELLS” (Massachusetts Institute of Technology, priority 2020, published 2023):

Experiments:
ISC-enriched organoids [1] = experiment: Primary screen, 384-well 2.5-D organoid differentiation (ENR+CD, 6 days, Target Selective Inhibitor Library, vs whole-plate median): ATP (CellTiter-Glo 3D, CTG); conditions: for Dose.FC.CTG: ENR+CD, 6 days, FC vs plate median; for Z.CTG: standard z score of FC; for Dose.FC.CTG (log 2 fold change) / Dose.FC.CTG (log 2 fold change, ATP): vs plate median
ISC-enriched organoids [2] = experiment: Primary screen, 384-well 2.5-D organoid differentiation (ENR+CD, 6 days): carbachol-induced lysozyme secretion (LYZ.S); assay type: cell-based, murine; conditions: for Dose.FC.LYZ.S: ENR+CD, 6 days, FC vs plate median; for Dose.FC.LYZ.S (log 2 fold change): primary screen; for Dose.FC.LYZ.S (log 2 fold change) / Dose.FC.LYZ.S (log 2 fold change, carbachol-induced lysozyme secretion): vs plate median
Description: (§1) High-throughput screening.

ISC-enriched organoids [3] = experiment: Primary screen, 384-well 2.5-D organoid differentiation (ENR+CD, 6 days): basal lysozyme secretion (LYZ.NS); assay type: cell-based, murine; conditions: for Dose.FC.LYZ.NS: ENR+CD, 6 days, FC vs plate median; for Z.LYZ.NS: standard z score of FC; for Dose.FC.LYZ.NS (log 2 fold change) / Dose.FC.LYZ.NS (log 2 fold change, basal lysozyme secretion): vs plate median
Description: as §1

| SMILES | Z.CTG (standard z score) (ISC-enriched organoids [1]; Dose 0.08 uM, primary screen) | Dose.FC.CTG (log 2 fold change) (ISC-enriched organoids [1]; Dose 0.08 uM, primary screen) | Z.CTG (standard z score) (ISC-enriched organoids [1]; Dose 0.40 uM, primary screen) | Dose.FC.CTG (log 2 fold change) (ISC-enriched organoids [1]; Dose 0.40 uM, primary screen) | Z.CTG (standard z score) (ISC-enriched organoids [1]; Dose 2.00 uM, primary screen) | Dose.FC.CTG (log 2 fold change) (ISC-enriched organoids [1]; Dose 2.00 uM, primary screen) | Z.CTG (standard z score) (ISC-enriched organoids [1]; Dose 10.00 uM, primary screen) | Dose.FC.CTG (log 2 fold change) (ISC-enriched organoids [1]; Dose 10.00 uM, primary screen) | Dose.FC.LYZ.S (log 2 fold change) (ISC-enriched organoids [2]; Dose 0.08 uM) | Dose.FC.LYZ.S (log 2 fold change) (ISC-enriched organoids [2]; Dose 0.40 uM) | Dose.FC.LYZ.S (log 2 fold change) (ISC-enriched organoids [2]; Dose 2.00 uM) | Dose.FC.LYZ.S (log 2 fold change) (ISC-enriched organoids [2]; Dose 10.00 uM) | Z.LYZ.NS (standard z score) (ISC-enriched organoids [3]; Dose 0.08 uM, primary screen) | Dose.FC.LYZ.NS (log 2 fold change) (ISC-enriched organoids [3]; Dose 0.08 uM, primary screen) | Z.LYZ.NS (standard z score) (ISC-enriched organoids [3]; Dose 0.40 uM, primary screen) | Dose.FC.LYZ.NS (log 2 fold change) (ISC-enriched organoids [3]; Dose 0.40 uM, primary screen) | Z.LYZ.NS (standard z score) (ISC-enriched organoids [3]; Dose 2.00 uM, primary screen) | Dose.FC.LYZ.NS (log 2 fold change) (ISC-enriched organoids [3]; Dose 2.00 uM, primary screen) | Z.LYZ.NS (standard z score) (ISC-enriched organoids [3]; Dose 10.00 uM, primary screen) | Dose.FC.LYZ.NS (log 2 fold change) (ISC-enriched organoids [3]; Dose 10.00 uM, primary screen) | also measured |
| --- | --- | --- | --- | --- | --- | --- | --- | --- | --- | --- | --- | --- | --- | --- | --- | --- | --- | --- | --- | --- | --- |
| C[C@@H]1C(=O)O[C@H]2C[C@@]34[C@H]5C[C@@H](C(C)(C)C)[C@]36[C@@H](OC(=O)[C@@H]6O)O[C@@]4(C(=O)O5)[C@]21O [Ginkgolide A] | – | – | – | – | – | – | – | – | – | – | – | – | – | – | – | – | – | – | – | – | Dose.FC.CTG (ISC-enriched organoids [1]; Dose 0.08 uM): 0.005 log 2 fold change; Z.CTG (ISC-enriched organoids [1]; Dose 0.08 uM): 0.011; Dose.FC.CTG (ISC-enriched organoids [1]; Dose 0.40 uM): −0.017 log 2 fold change; Z.CTG (ISC-enriched organoids [1]; Dose 0.40 uM): −0.040; Dose.FC.CTG (ISC-enriched organoids [1]; Dose 2.00 uM): 0.040 log 2 fold change; Z.CTG (ISC-enriched organoids [1]; Dose 2.00 uM): 0.095; Dose.FC.CTG (ISC-enriched organoids [1]; Dose 10.00 uM): −0.012 log 2 fold change; Z.CTG (ISC-enriched organoids [1]; Dose 10.00 uM): −0.028; Dose.FC.LYZ.S (ISC-enriched organoids [2]; Dose 0.08 uM): 0.124 log 2 fold change; Dose.FC.LYZ.S (ISC-enriched organoids [2]; Dose 0.40 uM): 0.161 log 2 fold change; Dose.FC.LYZ.S (ISC-enriched organoids [2]; Dose 2.00 uM): 0.002 log 2 fold change; Dose.FC.LYZ.S (ISC-enriched organoids [2]; Dose 10.00 uM): −0.028 log 2 fold change; Dose.FC.LYZ.NS (ISC-enriched organoids [3]; Dose 0.08 uM): 0.045 log 2 fold change; Z.LYZ.NS (ISC-enriched organoids [3]; Dose 0.08 uM): 0.395; Dose.FC.LYZ.NS (ISC-enriched organoids [3]; Dose 0.40 uM): 0.025 log 2 fold change; Z.LYZ.NS (ISC-enriched organoids [3]; Dose 0.40 uM): 0.222; Dose.FC.LYZ.NS (ISC-enriched organoids [3]; Dose 2.00 uM): 0.030 log 2 fold change; Z.LYZ.NS (ISC-enriched organoids [3]; Dose 2.00 uM): 0.258; Dose.FC.LYZ.NS (ISC-enriched organoids [3]; Dose 10.00 uM): 0.052 log 2 fold change; Z.LYZ.NS (ISC-enriched organoids [3]; Dose 10.00 uM): 0.450 |
| O=C1NC(=O)C(c2ccccc2[N+](=O)[O-])=C1Nc1ccc(O)c(Cl)c1 [SB415286] | 0.527 | 0.221 | −0.011 | −0.004 | −0.231 | −0.097 | 0.293 | 0.123 | 0.159 | −0.008 | −0.053 | −0.042 | 1.262 | 0.145 | 0.101 | 0.012 | 1.024 | 0.118 | −0.136 | −0.016 | – |
| CCC(=O)Nc1cccc(Oc2nc(Nc3ccc(N4CCN(C)CC4)cc3OC)ncc2Cl)c1 [WZ4003] | – | – | – | – | – | – | – | – | – | – | – | – | – | – | – | – | – | – | – | – | Z.CTG (standard z score) (ISC-enriched organoids [1]; dose 0.08 uM): 0.896; Dose.FC.CTG (log 2 fold change, ATP) (ISC-enriched organoids [1]; dose 0.08 uM): 0.375; Z.CTG (standard z score) (ISC-enriched organoids [1]; dose 0.40 uM): 0.413; Dose.FC.CTG (log 2 fold change, ATP) (ISC-enriched organoids [1]; dose 0.40 uM): 0.173; Z.CTG (standard z score) (ISC-enriched organoids [1]; dose 2.00 uM): 0.180; Dose.FC.CTG (log 2 fold change, ATP) (ISC-enriched organoids [1]; dose 2.00 uM): 0.076; Z.CTG (standard z score) (ISC-enriched organoids [1]; dose 10.00 uM): −0.043; Dose.FC.CTG (log 2 fold change, ATP) (ISC-enriched organoids [1]; dose 10.00 uM): −0.018; Dose.FC.LYZ.S (log 2 fold change, carbachol-induced lysozyme secretion) (ISC-enriched organoids [2]; dose 0.08 uM): 0.117; Dose.FC.LYZ.S (log 2 fold change, carbachol-induced lysozyme secretion) (ISC-enriched organoids [2]; dose 0.40 uM): −0.034; Dose.FC.LYZ.S (log 2 fold change, carbachol-induced lysozyme secretion) (ISC-enriched organoids [2]; dose 2.00 uM): −0.035; Dose.FC.LYZ.S (log 2 fold change, carbachol-induced lysozyme secretion) (ISC-enriched organoids [2]; dose 10.00 uM): −0.142; Z.LYZ.NS (standard z score) (ISC-enriched organoids [3]; dose 0.08 uM): 0.644; Dose.FC.LYZ.NS (log 2 fold change, basal lysozyme secretion) (ISC-enriched organoids [3]; dose 0.08 uM): 0.074; Z.LYZ.NS (standard z score) (ISC-enriched organoids [3]; dose 0.40 uM): −0.359; Dose.FC.LYZ.NS (log 2 fold change, basal lysozyme secretion) (ISC-enriched organoids [3]; dose 0.40 uM): −0.041; Z.LYZ.NS (standard z score) (ISC-enriched organoids [3]; dose 2.00 uM): −0.151; Dose.FC.LYZ.NS (log 2 fold change, basal lysozyme secretion) (ISC-enriched organoids [3]; dose 2.00 uM): −0.017; Z.LYZ.NS (standard z score) (ISC-enriched organoids [3]; dose 10.00 uM): −0.850; Dose.FC.LYZ.NS (log 2 fold change, basal lysozyme secretion) (ISC-enriched organoids [3]; dose 10.00 uM): −0.098 |
| CC(C)(C)c1cc(NC(=O)Nc2ccc(-c3cn4c(n3)sc3cc(OCCN5CCOCC5)ccc34)cc2)no1 [Quizartinib (AC220)] | 0.838 | 0.351 | 0.355 | 0.149 | −0.841 | −0.352 | −1.539 | −0.644 | 0.154 | 0.083 | −0.077 | −0.200 | 0.836 | 0.096 | 0.341 | 0.039 | −0.452 | −0.052 | −1.505 | −0.173 | – |
